Results taken from patent publication US20020137929A1, “1 - (3-heterocyclylphenyl) isothiourea, -isourea, -guanidine and -amidine herbicidal agents” (Intellectual Property Department, BASF Aktiengesellschaft, priority 1998, published 2002).

How the values were obtained:
[1] = tested on: ECHORC (Watergrass (Calif.)); test: Preemergence weed control under flooded paddy conditions; format: in vivo, Echinochloa oryzoides; conditions: rated 3-4 weeks after treatment
Summary of the method: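 Seeds or propagules sown in silt loam kept flooded 1.5-3 cm; compounds in 50/50 acetone/water pipetted into flood water at about 0.0313 to 0.500 kg/ha. Greenhouse; visual 0-9 rating versus untreated control 3-4 weeks after treatment.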

[2] = tested on: GALAP (Galium); test: Postemergence herbicidal evaluation; format: in vivo, Galium aparine; conditions: postemergence
Summary of the method: (§1)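 Two-week seedlings sprayed postemergence at 40 psi; formulation: 1:1 acetone/water, 0.5% TWEEN 20; application ≈0.0156–0.500 kg/ha. Greenhouse grow-out, then 0–9 visual scoring at 4–5 weeks.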

[3] = tested on: GLXMAW (Soybean, Williams); test: Postemergence herbicidal evaluation; format: in vivo, Glycine max, (L.) Merr. cv Williams; conditions: postemergence
Summary of the method: as §1

[4] = tested on: GALAP (Galium); test: Preemergence herbicidal evaluation; format: in vivo, Galium aparine; conditions: rated 4-5 weeks after treatment
Summary of the method: (§2)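 Rating at 4–5 wk post-spray on a 0–9 visual scale vs control. Application: aqueous acetone, ~0.0156–0.500 kg/ha, to soil surface after seeding, preemergence.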

[5] = tested on: SETVI (Foxtail, Green); test: Preemergence herbicidal evaluation; format: in vivo, Setaria viridis; conditions: rated 4-5 weeks after treatment
Summary of the method: as §2

[6] = tested on: SAGPY (Arrowhead (Pygmaea)); test: Preemergence weed control under flooded paddy conditions; format: in vivo, Sagittaria pygmaea; conditions: rated 3-4 weeks after treatment
Summary of the method: (§3)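 First, seeds or propagules go into the top 0.5 cm of silt loam; next, water is held 1.5 to 3 cm over the soil; then compound (50/50 acetone/water) is pipetted into it at about 0.0313 to 0.500 kg/ha; finally plants are rated visually 0-9 after three to four weeks.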

[7] = tested on: MOOVA (Monochoria); test: as above; format: in vivo, Monochoria vaginalis; conditions: rated 3-4 weeks after treatment
Summary of the method: as §3

[8] = tested on: AMBEL (Ragweed, Common); test: Postemergence herbicidal evaluation; format: in vivo, Ambrosia artemisifolia; conditions: postemergence
Summary of the method: as §1

[9] = tested on: CASOB (Sicklepod); test: Postemergence herbicidal evaluation; format: in vivo, Cassia obtusifolia; conditions: postemergence
Summary of the method: as §1

[10] = tested on: TRZAWR (Wheat, Winter, cv Riband); test: Postemergence herbicidal evaluation; format: in vivo, Triticum aestivum; conditions: postemergence
Summary of the method: as §1

[11] = tested on: ORYSAT (Rice, Tebonnet); test: Preemergence herbicidal evaluation; format: in vivo, Oryza sativa, (L.) Tebonnet; conditions: rated 4-5 weeks after treatment
Summary of the method: as §2

[12] = tested on: CYPSE (Flatsedge); test: Preemergence weed control under flooded paddy conditions; format: in vivo, Cyperus serotinus; conditions: rated 3-4 weeks after treatment
Summary of the method: as §3

[13] = rate 0.0625 kg/ha, rating scale 0-9
[14] = rate 0.1250 kg/ha, rating scale 0-9
[15] = rate 0.2500 kg/ha, rating scale 0-9

COCCN1C(=O)CSC1=Nc1cc(-n2c(=O)cc(C(F)(F)F)n(C)c2=O)c(F)cc1Cl [Compound 155, 3-{4-Chloro-2-fluoro-5-{[3-(2-methoxyethyl)-4-oxo-2-thiazolidinylidene]amino}phenyl}-1-methyl-6-(trifluoromethyl)-2,4(1H,3H)-pyrimidinedione]
herbicidal effect rating, ECHORC ([1]; 0.0313 kg/ha): 4.0 | herbicidal effect rating, ECHORC ([1]; 0.0625 kg/ha): 4.0 | herbicidal effect rating, ECHORC ([1]; 0.1250 kg/ha): 4.0 | herbicidal effect rating, ECHORC ([1]; 0.2500 kg/ha): 4.0 | herbicidal rating GALAP ([2]; rate 0.0156 kg/ha): 0.0 | herbicidal rating GALAP ([2]; rate 0.0313 kg/ha): 0.0 | herbicidal rating GALAP ([2]; rate 0.0625 kg/ha): 0.0 | herbicidal rating GLXMAW ([3]; rate 0.0156 kg/ha): 4.0 | herbicidal rating GLXMAW ([3]; rate 0.0313 kg/ha): 5.0 | herbicidal rating GLXMAW ([3]; rate 0.0625 kg/ha): 5.0 | Preemergence herbicidal rating GALAP [4, 13]: 4.0 | Preemergence herbicidal rating GALAP [4, 14]: 4.0 | Preemergence herbicidal rating GALAP [4, 15]: 4.0 | Preemergence herbicidal rating SETVI [5, 13]: 0.0 | Preemergence herbicidal rating SETVI [5, 14]: 0.0 | Preemergence herbicidal rating SETVI [5, 15]: 0.0 | herbicidal effect rating, SAGPY ([6]; 0.0313 kg/ha): 0.0 | herbicidal effect rating, SAGPY ([6]; 0.0625 kg/ha): 0.0 | herbicidal effect rating, SAGPY ([6]; 0.1250 kg/ha): 0.0 | herbicidal effect rating, SAGPY ([6]; 0.2500 kg/ha): 0.0 | herbicidal effect rating, MOOVA ([7]; 0.0313 kg/ha): 0.0 | herbicidal effect rating, MOOVA ([7]; 0.0625 kg/ha): 0.0 | herbicidal effect rating, MOOVA ([7]; 0.1250 kg/ha): 0.0 | herbicidal effect rating, MOOVA ([7]; 0.2500 kg/ha): 0.0 | herbicidal rating AMBEL ([8]; rate 0.0156 kg/ha): 0.0 | herbicidal rating AMBEL ([8]; rate 0.0313 kg/ha): 0.0 | herbicidal rating AMBEL ([8]; rate 0.0625 kg/ha): 0.0 | herbicidal rating CASOB ([9]; rate 0.0156 kg/ha): 0.0 | herbicidal rating CASOB ([9]; rate 0.0313 kg/ha): 0.0 | herbicidal rating CASOB ([9]; rate 0.0625 kg/ha): 0.0 | herbicidal rating TRZAWR ([10]; rate 0.0156 kg/ha): 1.0 | herbicidal rating TRZAWR ([10]; rate 0.0313 kg/ha): 2.0 | herbicidal rating TRZAWR ([10]; rate 0.0625 kg/ha): 3.0 | Preemergence herbicidal rating ORYSAT [11, 13]: 0.0 | Preemergence herbicidal rating ORYSAT [11, 14]: 0.0 | Preemergence herbicidal rating ORYSAT [11, 15]: 2.0 | herbicidal effect rating, CYPSE ([12]; 0.0313 kg/ha): 0.0 | herbicidal effect rating, CYPSE ([12]; 0.0625 kg/ha): 0.0 | herbicidal effect rating, CYPSE ([12]; 0.1250 kg/ha): 0.0

COC(=O)CSCCN1C(=O)CSC1=Nc1cc(-n2c(=O)cc(C(F)(F)F)n(C)c2=O)c(F)cc1Cl [Compound 158, Methyl {{2-{2-{{2-chloro-5-[3,6-dihydro-3-methyl-2,6-dioxo-4-(trifluoromethyl)-1(2H)-pyrimidinyl]-4-fluorophenyl}imino}-4-oxo-3-thiazolidinyl}ethyl}-thio}acetate]
herbicidal effect rating, ECHORC ([1]; 0.0313 kg/ha): 9.0 | herbicidal effect rating, ECHORC ([1]; 0.0625 kg/ha): 9.0 | herbicidal effect rating, ECHORC ([1]; 0.1250 kg/ha): 9.0 | herbicidal effect rating, ECHORC ([1]; 0.2500 kg/ha): 9.0 | herbicidal rating GALAP ([2]; rate 0.0156 kg/ha): 0.0 | herbicidal rating GALAP ([2]; rate 0.0313 kg/ha): 2.0 | herbicidal rating GALAP ([2]; rate 0.0625 kg/ha): 3.0 | herbicidal rating GLXMAW ([3]; rate 0.0156 kg/ha): 5.0 | herbicidal rating GLXMAW ([3]; rate 0.0313 kg/ha): 5.0 | herbicidal rating GLXMAW ([3]; rate 0.0625 kg/ha): 7.0 | Preemergence herbicidal rating GALAP ([4]; 0.0156 kg/ha): 0.0 | Preemergence herbicidal rating GALAP ([4]; 0.0313 kg/ha): 0.0 | Preemergence herbicidal rating GALAP ([4]; 0.0625 kg/ha): 5.0 | Preemergence herbicidal rating GALAP [4, 14]: 7.0 | Preemergence herbicidal rating GALAP [4, 15]: 6.0 | Preemergence herbicidal rating SETVI ([5]; 0.0156 kg/ha): 7.0 | Preemergence herbicidal rating SETVI ([5]; 0.0313 kg/ha): 9.0 | Preemergence herbicidal rating SETVI ([5]; 0.0625 kg/ha): 9.0 | Preemergence herbicidal rating SETVI [5, 14]: 9.0 | Preemergence herbicidal rating SETVI [5, 15]: 9.0 | herbicidal effect rating, SAGPY ([6]; 0.0313 kg/ha): 4.0 | herbicidal effect rating, SAGPY ([6]; 0.0625 kg/ha): 5.0 | herbicidal effect rating, SAGPY ([6]; 0.1250 kg/ha): 6.0 | herbicidal effect rating, SAGPY ([6]; 0.2500 kg/ha): 9.0 | herbicidal effect rating, MOOVA ([7]; 0.0313 kg/ha): 9.0 | herbicidal effect rating, MOOVA ([7]; 0.0625 kg/ha): 9.0 | herbicidal effect rating, MOOVA ([7]; 0.1250 kg/ha): 9.0 | herbicidal effect rating, MOOVA ([7]; 0.2500 kg/ha): 9.0 | herbicidal rating AMBEL ([8]; rate 0.0156 kg/ha): 6.0 | herbicidal rating AMBEL ([8]; rate 0.0313 kg/ha): 7.0 | herbicidal rating AMBEL ([8]; rate 0.0625 kg/ha): 9.0 | herbicidal rating CASOB ([9]; rate 0.0156 kg/ha): 4.0 | herbicidal rating CASOB ([9]; rate 0.0313 kg/ha): 4.0 | herbicidal rating CASOB ([9]; rate 0.0625 kg/ha): 9.0 | herbicidal rating TRZAWR ([10]; rate 0.0156 kg/ha): 3.5 | herbicidal rating TRZAWR ([10]; rate 0.0313 kg/ha): 4.0 | herbicidal rating TRZAWR ([10]; rate 0.0625 kg/ha): 3.5 | Preemergence herbicidal rating ORYSAT ([11]; 0.0156 kg/ha): 3.0 | Preemergence herbicidal rating ORYSAT ([11]; 0.0313 kg/ha): 4.0 | Preemergence herbicidal rating ORYSAT ([11]; 0.0625 kg/ha): 7.0 | Preemergence herbicidal rating ORYSAT [11, 14]: 7.0 | Preemergence herbicidal rating ORYSAT [11, 15]: 8.0 | herbicidal effect rating, CYPSE ([12]; 0.0313 kg/ha): 5.0 | herbicidal effect rating, CYPSE ([12]; 0.0625 kg/ha): 9.0 | herbicidal effect rating, CYPSE ([12]; 0.1250 kg/ha): 9.0 | herbicidal effect rating, CYPSE ([12]; 0.2500 kg/ha): 9.0
